Source: US20200223894A1, “PEPTIDES FOR THE TREATMENT OF CONDITIONS ASSOCIATED WITH ADIPONECTIN DYSFUNCTION” (AUCKLAND UNISERVICES LIMITED, priority 2017, published 2020)

Experiments:
3T3-L1 adipocytes = assay: Adiponectin levels and oligomeric distribution in conditioned media and cell lysate of peptide-treated adipocytes (Western blotting); format: cell-based, murine; settings: for amount of HMW adiponectin in the cell lysate / sub-population of the hexametric adiponectin in the cell lysate: compared to IgM-derived cargo peptides; for HMW adiponectin level in conditioned media / hexamer adiponectin level in conditioned media / trimeric adiponectin level in conditioned media: non-reducing SDS-PAGE
Method: 3T3-L1 cells (ATCC #CL-173, Manassas, Va., USA) were cultured in Dulbecco's Modified Eagle Medium (DMEM) supplemented with 10% fetal bovine serum (FBS) and 1% penicillin-streptomycin-fungisone (PSF) at 37° C. and under 5% CO2 95% humidified air. For differentiation, the confluent 3T3-L1 cultures were supplemented with 10 μg/ml insulin, 0.25 μM dexamethasone and 0.5 mM isobutylmethylxanthine for two days, followed by incubation with 10 μg/ml insulin in the culture medium for another two days. Subsequently, cells were incubated in DMEM with 10% FBS that was changed every two days. Peptide treatment (200 nM in FBS-free medium) was performed in fully differentiated 3T3-L1 adipocyte cultures. After incubation for 24 h, cell lysates and the conditioned medium were collected for subsequent analyses.
(§1) Cells or adipose tissues were washed with phosphate buffer (137 mM NaCl, 2.7 mM KCl, 4.3 mM Na2HPO4, 1.47 mM KH2PO4, pH 7.4) and then solubilized in lysis buffer (25 mM Tris-HCl pH 7.5, 150 mM NaCl, 5 mM NaF, 1% sodium deoxycholate, 1% Nonidet P-40, 1% Triton X-100 plus protease inhibitor mixtures). Equal amounts of lysates (100 μg) were precleared with protein G (Thermo Fisher Scientific, Waltham, Mass., USA) and incubated overnight with specific antibodies at 4° C. with shaking.
(§2) After incubating with protein G for another four hours, the immune-complexes were precipitated by low-speed centrifugation, washed three times with lysis buffer, and eluted in SDS-PAGE sample buffer (50 mM Tris-HCl pH 6.8, 1% SDS, 5% glycerol, 3% β-mercaptomethanol, 0.01% bromophenal blue) or 0.1 M glycine HCl (pH 3.0) and then diluted with non-reducing sample buffer (1% SDS, 5% glycerol, 10 mM Tris-HCl pH6.8) for analyzing adiponectin monomers and oligomers by Western blotting.
Cell lysates, media or serum samples were incubated with non-reducing sample buffer at room temperature for 10 minutes and then separated by 4-20% gradient SDS-PAGE. After transferring to polyvinylidene difluoride (PVDF) membranes, immunoblotting was performed using an in-house antibody against murine adiponectin developed by Antibody and Immunoassay Services, HKU (http://www.pharma.hku.hk/sweb/antibody/PolyclonalAntibodyCont.php?polyclonal_no=60 0005), or antibodies against ERp44 (Santa Cruz Biotechnology, Santa Cruz, Calif.), DsbA-L (Abcam, Cambridge, Mass., USA). Protein bands were quantified by ImageJ and intensities were compared. All experiments were repeated at least six times.

[1] = system: C57/BL6 mice fed a high fat diet; assay: Serum total and HMW adiponectin in high fat diet mice after acute peptide injection; format: in vivo, mouse; settings: HFD mice, 10 mg/kg i.p.; for HMW form of adiponectin in serum: normalized to corresponding cargo peptide
Method: (§3) All experimental protocols were approved by the Committee on the Use of Live Animals for Teaching and Research of the University of Hong Kong and carried out in accordance with ARRIVE (Animal Research: Reporting of In Vivo Experiments) as well as institutional guidelines for the care and use of laboratory animals. Mice of the C57BL/6J background were housed in a room under controlled temperature (23±1° C.) with 12 hour light-dark cycles and free access to water and food. Mice were fed with either standard chow (STC; 3.07 kcal/g, LabDiet 5053, Purina Mills, Richmond, Ind., USA) or high-fat diet (HFD; 4.73 kcal/g containing 45% fat, 20% protein and 35% carbohydrate, D12451, Research diet, N.J., USA) starting from four-weeks old.
Immunoprecipitation and Western blotting studies were performed on serum adipose tissue samples obtained from mice as described above in Example 2. The serum was collected 24 hours after injection.
Mice were administered intraperitoneally with the peptides described in Table 2 (10 mg/kg body weight for acute studies at 16-weeks old or 5 mg/kg/day for four-week chronic treatment at 12-weeks old). Body weights of the animals were monitored on a weekly basis. Fasting blood glucose was determined after 16-hours food starvation (from 6:00 pm to 10:00 am) by a Accu-Check Advantage II Glucometer (Roche Diagnostics Mannheim, Germany). Fasting body fat mass was determined by the minispec Body Composition Analyzer (Bruker Optics Inc., Tex., USA). Circulating and tissue contents of lipids, including triglycerides and total cholesterols, were analyzed using LiquiColor® Triglycerides and Stanbio Cholesterol assay kits, respectively. Serum adiponectin concentrations were determined with an in-house ELISA kit as described (Wang et al., 2006 J Biol Chem 281: 16391-16400). Serum insulin levels were measured with an in-house mouse insulin ELISA kit (Cat No. 32100, http://www.pharma.hku.hk/sweb/antibody/ELISA.php). Homeostatic Model Assessment of […]

[2] = system: C57/BL6 mice fed a standard chow diet (STC) or high fat diet (HFD); assay: Four-week chronic peptide treatment of mice on STC or HFD: insulin sensitivity and energy homeostasis; format: in vivo, mouse; settings: 5 mg/kg/day i.p., four weeks; for HFD-induced hyperglycemia (fasting glucose levels): 16-hours fasting
Method: as §3
Mice were administered intraperitoneally with the peptides described in Table 2 (10 mg/kg body weight for acute studies at 16-weeks old or 5 mg/kg/day for four-week chronic treatment at 12-weeks old). Body weights of the animals were monitored on a weekly basis. Fasting blood glucose was determined after 16-hours food starvation (from 6:00 pm to 10:00 am) by a Accu-Check Advantage II Glucometer (Roche Diagnostics Mannheim, Germany). Fasting body fat mass was determined by the minispec Body Composition Analyzer (Bruker Optics Inc., Tex., USA). Circulating and tissue contents of lipids, including triglycerides and total cholesterols, were analyzed using LiquiColor® Triglycerides and Stanbio Cholesterol assay kits, respectively. Serum adiponectin concentrations were determined with an in-house ELISA kit as described (Wang et al., 2006 J Biol Chem 281: 16391-16400). Serum insulin levels were measured with an in-house mouse insulin ELISA kit (Cat No. 32100, http://www.pharma.hku.hk/sweb/antibody/ELISA.php). Homeostatic Model Assessment of
Insulin Resistance (HOMA-IR) was calculated as fasting insulin (μU/ml)×fasting glucose (mmol/L)/22.5 for comparison as described (Xu et al., 2013). All results were compared between mice treated with control and CPP peptides.

[3] = biological target: T1, ERp44-adiponectin interaction (Mus musculus, UniProt Q9D1Q6); assay: ERp44-adiponectin interaction in mouse adipose tissue lysates by co-immunoprecipitation; format: in vivo; settings: HFD mice
T1 construct: from tissue; host or cells: adipose tissue of C57BL/6J mice on a high-fat diet, treated i.p. with the peptides
T1 sequence (Q9D1Q6 30-406): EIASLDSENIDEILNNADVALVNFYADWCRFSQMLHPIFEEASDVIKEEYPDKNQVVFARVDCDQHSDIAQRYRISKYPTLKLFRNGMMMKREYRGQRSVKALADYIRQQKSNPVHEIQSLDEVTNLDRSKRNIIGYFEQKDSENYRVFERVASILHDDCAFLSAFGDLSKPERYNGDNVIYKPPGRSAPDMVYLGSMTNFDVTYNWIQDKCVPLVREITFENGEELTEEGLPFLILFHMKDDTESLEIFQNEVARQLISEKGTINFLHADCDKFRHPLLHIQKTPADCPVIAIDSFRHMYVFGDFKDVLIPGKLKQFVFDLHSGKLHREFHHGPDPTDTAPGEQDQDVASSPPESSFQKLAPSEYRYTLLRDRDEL
Method: as §1, §2
Cell lysates, media or serum samples were incubated with non-reducing sample buffer at room temperature for 10 minutes and then separated by 4-20% gradient SDS-PAGE. […] Protein bands were quantified by ImageJ and intensities were compared. […]

[4] = biological target: T2, Recombinant mouse ERp44 (murine ERp44 without the signal sequence, monomeric fraction) (mouse, UniProt Q9D1Q6 30-406); assay: ESI-MS of ERp44 (43 uM) incubated with 10-fold excess peptide (430 uM), 4 days, pH 6.5; disulfide-linked complex
T2 construct: mature; Cloned into pET28b at the NheI and XhoI sites and expressed in E. coli; The monomer fraction from Superdex-200 was used; Free ERp44 is observed at 46,074 amu in ESI-MS; also called recombinant ERp44
T2 sequence (looked up): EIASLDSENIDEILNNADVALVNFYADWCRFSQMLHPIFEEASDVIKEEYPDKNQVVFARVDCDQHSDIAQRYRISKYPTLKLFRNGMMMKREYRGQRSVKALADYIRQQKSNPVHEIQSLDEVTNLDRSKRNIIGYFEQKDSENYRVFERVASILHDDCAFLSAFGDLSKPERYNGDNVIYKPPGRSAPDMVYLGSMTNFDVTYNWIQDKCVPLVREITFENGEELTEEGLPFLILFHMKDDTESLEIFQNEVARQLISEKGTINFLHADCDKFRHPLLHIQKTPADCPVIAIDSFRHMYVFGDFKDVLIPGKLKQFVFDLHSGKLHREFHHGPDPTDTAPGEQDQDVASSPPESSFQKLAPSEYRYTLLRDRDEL

[5] = biological target: T2, Recombinant mouse ERp44 (murine ERp44 …); assay: ESI-MS, recombinant mouse ERp44 43 uM with 430 uM peptide, 4 days
[6] = 200 nM peptide, 24 h, cell lysate
[7] = 200 nM peptide, 24 h, conditioned media, vs corresponding non-CPP cargo peptide
[8] = serum 24 hours after injection, vs corresponding cargo peptide only group

## YGRKKKRRQQRRRDTGGTCY [CPP-M2]
3T3-L1 adipocytes; [6]
  intracellular adiponectin levels: decreased
3T3-L1 adipocytes; [7]
  increase in total amount of adiponectin secreted in the media: ~53%
3T3-L1 adipocytes; 200 nM, cell lysate
  amount of HMW adiponectin in the cell lysate: significantly increased
  sub-population of the hexametric adiponectin in the cell lysate: decreased
3T3-L1 adipocytes; 200 nM, conditioned media
  HMW adiponectin level in conditioned media: significantly elevated
  hexamer adiponectin level in conditioned media: significantly elevated
  trimeric adiponectin level in conditioned media: significantly elevated
[1]; [8]
  increase in circulating concentration of adiponectin: ~34%
[1]
  HMW form of adiponectin in serum: increased
[2]
  HFD-induced insulin resistance (calculated HOMA-IR): significantly blocked
  HFD-induced reduction of adiponectin concentrations in serum: prevented the reduction
  circulating cholesterol levels: significantly reduced
  circulating triglyceride levels: significantly reduced
  lipid (triglyceride) accumulation in livers: attenuated
  HFD-induced hyperglycemia (fasting glucose levels): significantly blocked

## YGRKKKRRQQRRRGTCY [CPP-M1]
3T3-L1 adipocytes; [6]
  intracellular adiponectin levels: decreased
3T3-L1 adipocytes; [7]
  increase in total amount of adiponectin secreted in the media: ~45%
3T3-L1 adipocytes; 200 nM, cell lysate
  amount of HMW adiponectin in the cell lysate: significantly increased
  sub-population of the hexametric adiponectin in the cell lysate: decreased
3T3-L1 adipocytes; 200 nM, conditioned media
  HMW adiponectin level in conditioned media: significantly elevated
  hexamer adiponectin level in conditioned media: significantly elevated
  trimeric adiponectin level in conditioned media: significantly elevated
[1]; [8]
  increase in circulating concentration of adiponectin: ~28%
[1]
  HMW form of adiponectin in serum: increased
[2]
  HFD-induced insulin resistance (calculated HOMA-IR): significantly blocked
  HFD-induced reduction of adiponectin concentrations in serum: prevented the reduction
  circulating cholesterol levels: significantly reduced
  circulating triglyceride levels: significantly reduced
  lipid (triglyceride) accumulation in livers: attenuated
  HFD-induced hyperglycemia (fasting glucose levels): significantly blocked
[2]; compared to M1 cargo peptide
  body fat mass under HFD: significantly decreased

## YGRKKRRQQRRRKGTCAGWMA [CPP-adiponectin]
3T3-L1 adipocytes; [6]
  intracellular adiponectin levels: increased
3T3-L1 adipocytes; [7]
  reduction of total amount of adiponectin in the conditioned media: ~16%
3T3-L1 adipocytes; 200 nM, cell lysate
  oligomeric composition of adiponectin in the cell lysate: shifted towards the trimer
3T3-L1 adipocytes; 200 nM, conditioned media
  HMW adiponectin level in conditioned media: significantly reduced
  trimeric adiponectin level in conditioned media: significantly reduced
[1]; [8]
  decrease in circulating concentration of adiponectin: ~14%
[1]
  HMW form of adiponectin in serum: significantly decreased
[3]
  amount of adiponectin bound to ERp44 in mouse adipose tissue: significantly decreased

B1: Adiponectin peptide (adiponectin-derived cargo peptide KGTCAGWMA) (peptide)
peptide: KGTCAGWMA
notes: also called adiponectin derived peptide
[4]
  binding result: binds

B2: M2 (IgM-derived cargo peptide DTGGTCY) (peptide)
peptide: DTGGTCY
[5]
  binding result: binds

B3: M1 (IgM-derived cargo peptide GTCY) (peptide)
peptide: GTCY
[4]
  binding result: binds
